# From patent publication US5981576A, “(Methylsulfonyl)phenyl-2-(5H)-furanones as COX-2 inhibitors” (Merck Frosst Canada, Inc., priority 1998, dated 1999)
# Columns and labels:
# COX-1 [1] = target: T1, COX-1 (Homo sapiens, UniProt P23219); assay: biochemical; format: biochemical; details: Table III; U937
# Procedure: Compounds are tested as inhibitors of cyclooxygenase activity in whole cell cyclooxygenase assays. Both of these assays measure prostaglandin E2 synthesis in response to arachidonic acid, using a radioimmunoassay. Cells used for these assays are human osteosarcoma 143 cells (which specifically express COX-2) and human U-937 cells (which specifically express COX-1). In these assays, 100% activity is defined as the difference between prostaglandin E2 synthesis in the absence and presence of arachidonate.
# U 937 cells are pelleted by centrifugation at 500×g for 5 min and washed once with phosphate-buffered saline and repelleted. Cells are resuspended in homogenization buffer consisting of 0.1 M Tris-HCl, pH 7.4, 10 mM EDTA, 2 μg/ml leupeptin, 2 μg/ml soybean trypsin inhibitor, 2 μg/ml aprotinin and 1 mM phenyl methyl sulfonyl fluoride. The cell suspension is sonicated 4 times for 10 sec and is centrifuged at 10,000×g for 10 min at 4° C. The supernatant is centrifuged at 100,000×g for 1 hr at 4 ° C. The 100,000×g microsomal pellet is resuspended in 0.1 M Tris-HCl, pH 7.4, 10 mM EDTA to approximately 7 mg protein/ml and stored at -80° C.
# Microsomal preparations are thawed immediately prior to use, subjected to a brief sonication, and then diluted to a protein concentration of 125 μg/ml in 0.1 M Tris-HCl buffer, pH 7.4 containing 10 mM EDTA, 0.5 mM phenol, 1 mM reduced glutathione and 1 μM hematin. Assays are performed in duplicate in a final volume of 250 μl. Initially, 5 μd of DMSO vehicle or drug in DMSO are added to 20 μl of 0.1 M Tris-HCl buffer, pH 7.4 containing 10 mM EDTA in wells of a 96-deepwell polypropylene titre plate. 200 μl of the microsomal preparation are then added and pre-incubated for 15 min at room temperature before addition of 25 μl of […] in 0.1 M Tris-HCl and 10 mM EDTA, pH 7.4. […] Cyclooxygenase activity is defined as the difference between PGE2 levels in samples incubated in the presence of arachidonic acid and ethanol vehicle.
# COX-1 [2] = target: T1, COX-1; assay: Human whole blood assay, COX-1 (clotting-induced TxB2 production); format: cell-based; details: Table III, read-out: COX-1 (IC50) HWB
# Text: (§1) As well, platelets in whole blood contain a large amount of the COX-1 enzyme. Immediately following blood clotting, platelets are activated through a thrombin-mediated mechanism. […] Therefore, the degree of selectivity by the test compound can be determined by measuring the levels of PGE2 after LPS induction (COX-2) and TxB2 following blood clotting (COX-1) in the same assay.
# B. COX-1 (Clotting-induced TxB2 production)
# Fresh blood is collected into vacutainers containing no anticoagulants. Aliquots of 500 μL are immediately transferred to siliconized microcentrifuge tubes preloaded with 2 μL of either DMSO or a test compound at final concentrations varying from 10 nM to 30 μM. The tubes are vortexed and incubated at 37° C. for 1 hour to allow blood to clot. At the end of incubation, serum is obtained by centrifugation (12,000×g for 5 min.). A 100 μL aliquot of serum is mixed with 400 μL of methanol for protein precipitation.
# COX-2 [3] = target: T2, COX-2 (Homo sapiens, UniProt P35354); assay: cell-based; details: Table IV; CHO[hCOX-2] cells, 10 μM AA
# T2 sequence (P35354 18-604): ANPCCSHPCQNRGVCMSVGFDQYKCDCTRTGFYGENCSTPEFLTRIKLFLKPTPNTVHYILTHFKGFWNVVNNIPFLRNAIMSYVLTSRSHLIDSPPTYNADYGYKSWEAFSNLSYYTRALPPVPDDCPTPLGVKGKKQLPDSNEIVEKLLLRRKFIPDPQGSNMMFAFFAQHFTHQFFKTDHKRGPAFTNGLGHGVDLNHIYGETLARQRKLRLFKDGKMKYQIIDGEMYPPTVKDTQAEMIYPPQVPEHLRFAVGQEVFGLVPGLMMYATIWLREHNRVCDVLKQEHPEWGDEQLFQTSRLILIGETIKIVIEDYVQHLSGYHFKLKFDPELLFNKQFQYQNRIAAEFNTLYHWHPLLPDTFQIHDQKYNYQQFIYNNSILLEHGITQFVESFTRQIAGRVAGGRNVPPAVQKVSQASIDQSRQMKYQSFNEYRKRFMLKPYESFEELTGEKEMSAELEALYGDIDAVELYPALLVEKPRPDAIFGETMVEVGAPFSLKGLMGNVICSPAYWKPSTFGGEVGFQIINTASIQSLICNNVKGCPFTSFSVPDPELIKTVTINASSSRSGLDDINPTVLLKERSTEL
# Procedure: Chinese hamster ovary (CHO) cell lines which have been stably transfected with an eukaryotic expression vector pCDNAIII containing either the human COX-1 or COX-2 cDNA's are used for the assay. These cell lines are referred to as CHO [hCOX-1] and CHO [hCOX-2], respectively. […] Cells (0.3×10^6 cells in 200 μl) are preincubated with 3 μl of the test drug or DMSO vehicle for 15 min at 37° C. […] Cells are then challenged in the presence or absence of drug with the AA/HBSS solution to yield a final concentration of 0.5 μM AA in the CHO[hCOX-1] assay and a final concentration of 10 μM AA in the CHO[hCOX-2] assay. […] The samples are centrifuged at 300×g at 4° C. for 10 min, and an aliquot of the clarified supernatant is appropriately diluted for the determination of PGE2 levels using an enzyme-linked immunoassay for PGE2 (Correlate PGE2 enzyme immunoassay kit, Assay Designs, Inc.). Cyclooxygenase activity in the absence of test compounds is determined as the difference in PGE2 levels of cells challenged with arachidonic acid versus the PGE2 levels in cells mock-challenged with ethanol vehicle. Inhibition of PGE2 synthesis by test compounds is calculated as a percentage of the activity in the presence of drug versus the activity in the positive control samples.
# COX-2 [4] = target: T2, COX-2; assay: cell-based; details: Table IV; human whole blood, LPS-induced PGE2; read-out: COX-2 (IC50, μM) HWB
# Text: as §1
# A. COX-2 (LPS-induced PGF, production)
# Fresh blood is collected in heparinized tubes by venipuncture from both male and female volunteers. The subjects have no apparent inflammatory conditions and have not taken any NSAIDs for at least 7 days prior to blood collection. Plasma is immediately obtained from a 2 mL blood aliquot to use as blank (basal levels of PGE2).
# COX-2 [5] = target: T2, COX-2; assay: biochemical; details: Table IV; purified human COX-2; read-out: COX-2 (IC50, μM) TMPD
# Procedure: Assay of the activity of purified human COX-2
# The assay mixture (180 μL) contains 100 mM sodium phosphate, pH 6.5, 2 mM genapol X-100, 1 μM hematin, 1 mg/ml gelatin, 80-100 units of purified enzyme (One unit of enzyme is defined as the amount of enzyme required to produce an O.D. change of 0.001/min at 610 nm) and 4 μL of the test compound in DMSO. The mixture is pre-incubated at room temperature (22° C.) for 15 minutes prior to initiation of the enzymatic reaction by the addition of 20 μL of a sonicated solution of 1 mM arachidonic acid (AA) and 1 mM TMPD in assay buffer (without enzyme or hematin). The enzymatic activity is measured by estimation of the initial velocity of TMPD oxidation over the first 36 sec of the reaction. […] IC50 values are derived from 4-parameter least squares non-linear regression analysis of the log-dose vs % inhibition plot.
# Rat Paw Edema = assay: Rat paw edema assay (carrageenan); format: in vivo, Male Sprague-Dawley rats; details: 3 h, Table IV, po
# Procedure: Male Sprague-Dawley rats (150-200 g) are fasted overnight and are given, po, either vehicle (1% methocel or 5% Tween 80) or a test compound. One hr later, a line is drawn using a permanent marker at the level above the ankle in one hind paw to define the area of the paw to be monitored. The paw volume (V0) is measured using a plethysmometer (Ugo-Basile, Italy) based on the principle of water displacement. […] The animals are sacrificed by CO2 asphyxiation and the absence or presence of stomach lesions scored. Data is compared with the vehicle-control values and percent inhibition calculated. All treatment groups are coded to eliminate observer bias.
# T1 sequence (P23219 24-599): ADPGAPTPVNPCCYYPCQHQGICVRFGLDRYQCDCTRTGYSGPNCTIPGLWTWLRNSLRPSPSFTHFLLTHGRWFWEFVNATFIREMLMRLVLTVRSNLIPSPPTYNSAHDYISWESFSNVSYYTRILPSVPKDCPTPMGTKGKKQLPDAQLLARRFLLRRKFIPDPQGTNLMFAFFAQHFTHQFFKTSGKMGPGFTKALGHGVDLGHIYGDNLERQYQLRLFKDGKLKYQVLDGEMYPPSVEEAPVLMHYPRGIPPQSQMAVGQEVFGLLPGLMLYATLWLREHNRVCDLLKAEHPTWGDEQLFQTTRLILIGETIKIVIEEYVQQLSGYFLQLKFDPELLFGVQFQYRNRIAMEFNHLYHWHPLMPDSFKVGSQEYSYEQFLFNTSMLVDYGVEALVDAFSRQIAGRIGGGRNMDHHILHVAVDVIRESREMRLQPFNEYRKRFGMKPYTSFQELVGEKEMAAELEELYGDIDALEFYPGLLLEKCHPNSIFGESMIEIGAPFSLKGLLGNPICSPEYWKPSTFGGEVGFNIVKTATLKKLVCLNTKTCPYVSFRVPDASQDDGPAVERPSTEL
IC50 (COX-1 [1]) [µM],IC50 (COX-1 [2]) [µM],IC50 (COX-2 [3]) [µM],IC50 (COX-2 [4]) [µM],IC50 (COX-2 [5]) [µM],SMILES,ED50 (Rat Paw Edema) [mg/kg]
> 3,25.3,–,–,–,"COC1(C)OC(=O)C(Oc2ccc(F)c(F)c2)=C1c1ccc(S(C)(=O)=O)cc1 (stereo not shown) [Example 24c, 3-(3,4-Difluorophenoxy)-5-methoxy-5-methyl-4-(4-(methylsulfonyl)phenyl)-5H-furan-2-one]",–
–,–,0.2,0.61,7.8,"CC1(C)OC(=O)C(Oc2cncc(Cl)c2)=C1c1ccc(S(C)(=O)=O)cc1 [Example 49, 3-(3-Chloro-5-pyridiloxy)-5,5-dimethyl-4-(4-(methylsulfonyl)phenyl)-5H-furan-2-one]",–
–,–,0.06,0.62,8,"CC[C@@]1(C)OC(=O)C(Oc2ccc(F)cn2)=C1c1ccc(S(C)(=O)=O)cc1 [Example 162, (5R)-3-(5-Fluoro-2-pyridyloxy)-5-ethyl-5-methyl-4-(4-methylsulfonyl)-phenyl-5H-furan-2-one]",–

# More lines, now with the values behind:
SMILES,IC50 (COX-1 [1]) [µM],IC50 (COX-1 [2]) [µM],IC50 (COX-2 [3]) [µM],IC50 (COX-2 [4]) [µM],IC50 (COX-2 [5]) [µM],ED50 (Rat Paw Edema) [mg/kg]
"CC1(C)OC(=O)C(OC2CCCCC2)=C1c1ccc(S(C)(=O)=O)cc1 [Example 14, 3-Cyclohexyloxy-5,5-dimethyl-4-(4-(methylsulfonyl)phenyl)-5H-furan-2-one]",> 10,58.3,–,–,–,–
"C[C@]1(CC(F)(F)F)OC(=O)C(Oc2ccc(F)cc2)=C1c1ccc(S(C)(=O)=O)cc1 [Example 166, (5R)-3-(4-fluorophenoxy)-5-methyl-4-(4-methylsulfonyl)phenyl-5-(2,2,2-trifluoroethyl)-5H-furan-2-one]",–,–,–,–,–,4.9
"CC1(C)OC(=O)C(Oc2ccc(F)c(F)c2)=C1c1ccc(S(C)(=O)=O)cc1 [Example 1, 3-(3,4-Difluorophenoxy)-5,5-dimethyl-4-(4-(methylsulfonyl)phenyl)-5H-furan-2-one]",0.99,9.2,–,–,–,–
